Data on seven compounds can be found in EPA's ToxRefDB 2.

Data set [1] concerns mouse. To be noted: Carcinogenicity, b6c3f1, Oral, Feed, dose end: 101 week, group: systemic.
For data set [2], the system named is rat. To be noted: Carcinogenicity, fischer, Oral, Feed, dose end: 101 week, group: systemic.
Data set [3] has as its system rat. To be noted: Subchronic oral toxicity in rodents, other, Feed, dose end: 13 week, group: systemic.
Data set [4] relates to dog. To be noted: Chronic toxicity, beagle, Oral, Feed, dose end: 52 week, group: systemic.
The test system of data set [5] is dog. To be noted: Subchronic oral toxicity in nonrodent, beagle, Feed, dose end: 13 week, group: systemic, systemic / hematology / erythrocyte (rbc) count differential / erythrocyte (rbc) + systemic / in life observation / body weight / body ….
Data set [6] deals with rat. To be noted: Subchronic oral toxicity in rodents, sprague dawley, Feed, dose end: 13 week, group: systemic, systemic / clinical chemistry / thyroxine (t4) / thyroxine (t4).
The test system of data set [7] is rat. To be noted: Combined chronic toxicity/carcinogenicity, sprague dawley, Oral, Feed, dose end: 2 year, group: systemic.
Data set [8] concerns rat. To be noted: Prenatal developmental toxicity study, sprague dawley, Oral, Gavage/Intubation, dose end: 15 GD.
Data set [9] deals with rat. To be noted: Prenatal developmental toxicity study, sprague dawley, Oral, Gavage/Intubation, dose end: 15 GD. This is another data set of the same source.
For data set [10], the system named is mouse. To be noted: Subchronic oral toxicity in rodents, cd1, Feed, dose end: 90 day, group: systemic, systemic / clinical chemistry / aminopyrine-n-demethylase / aminopyrine-n-demethylase + systemic / clinical chemistry / p-nitroanisole ….
Data set [11] relates to rat. To be noted: Developmental neurotoxicity range-finding study; sprague dawley; Oral; Feed; dose end: 21 PND; group: cannot be grouped; systemic / in life observation / body weight / offspring (pup) weight.
The test system of data set [12] is rat. To be noted: Subchronic oral toxicity in rodents, other, Feed, dose end: 90 day, group: systemic.
Data set [13] concerns dog. To be noted: Chronic toxicity, beagle, Oral, Feed, dose end: 12 month, group: systemic.
Data set [14] concerns rat. To be noted: Peri- and post-natal toxicity study (Segment III), sprague dawley, Oral, Gavage/Intubation, dose end: 42 PND.
The test system of data set [15] is dog. To be noted: Chronic toxicity; beagle; Oral; Feed; dose end: 12 month; group: systemic; systemic / pathology microscopic / adrenal gland / fatty change + systemic / pathology microscopic / adrenal gland / hyperplasia + systemic….
For data set [16], the system named is dog. To be noted: Subchronic oral toxicity in nonrodent, beagle, Feed, dose end: 90 day, group: systemic, systemic / hematology / erythrocyte (rbc) count differential / erythrocyte (rbc) + systemic / hematology / mean corpuscular (cell) volume (….
The test system of data set [17] is rat. To be noted: Developmental neurotoxicity study; sprague dawley; Oral; Gavage/Intubation; dose end: 140 PND; group: cannot be grouped; systemic / in life observation / body weight / body weight + developmental / offspring survival late / [other] / [other] + systemic / in ….
Data set [18] deals with mouse. To be noted: Carcinogenicity; b6c3f1; Oral; Feed; dose end: 78 week; group: systemic; systemic / pathology microscopic / liver / carcinoma + systemic / in life observation / body weight / body weight + systemic / in life ….
Data set [19] concerns rat. To be noted: Carcinogenicity, other, Oral, Feed, dose end: 78 week, group: systemic.
The mark [20] stands for this setting: systemic / in life observation / body weight / body weight.
The mark [21] stands for this setting: systemic / in life observation / body weight / body weight + systemic / pathology microscopic / blood vessel / hemangiosarcoma + systemic / ….
[22] abbreviates: systemic / in life observation / body weight / body weight + systemic / pathology microscopic / liver / neoplastic nodule + systemic / ….
Where [23] appears, read: systemic / pathology microscopic / kidney / hypertrophy.
The mark [24] stands for this setting: systemic / pathology microscopic / kidney / hypertrophy + systemic / in life observation / body weight / body weight + systemic / in life ….
Where [25] appears, read: systemic / in life observation / body weight / body weight gain.
Setting [26] is: systemic / in life observation / body weight / body weight gain + systemic / clinical chemistry / cholesterol / cholesterol + systemic / ….
The mark [27] stands for this setting: total + systemic / clinical chemistry / thyroid stimulating hormone (….
Setting [28] is: systemic / clinical chemistry / thyroid stimulating hormone (thyrotropin) (tsh) / thyroid stimulating hormone (=thyrotropin) (tsh) + ….
Setting [29] is: group: developmental, developmental / developmental malformation / bone / absent + developmental / developmental malformation / bone / bent + developmental / ….
The mark [30] stands for this setting: group: maternal, systemic / in life observation / body weight / body weight + systemic / in life observation / body weight / body weight gain + systemic / in….
Where [31] appears, read: group: developmental, developmental / developmental malformation / bone / incomplete ossification.
Where [32] appears, read: group: maternal, systemic / in life observation / body weight / body weight gain + systemic / in life observation / food consumption / food consumption.
Where [33] appears, read: group: maternal, systemic / in life observation / body weight / body weight gain + systemic / in life observation / food consumption / food consumption + ….
The mark [34] stands for this setting: systemic / pathology microscopic / kidney / pigmentation.
Setting [35] is: systemic / pathology microscopic / kidney / pigmentation + systemic / clinical chemistry / cholesterol / cholesterol + systemic / clinical ….
Where [36] appears, read: systemic / organ weight / spleen / absolute + systemic / organ weight / spleen / relative to body weight + systemic / pathology microscopic….
Where [37] appears, read: systemic / pathology gross / liver / accentuated lobular pattern + systemic / pathology microscopic / eye / lesion(s) (nos) + systemic / ….
The mark [38] stands for this setting: group: maternal, reproductive / offspring survival early / dead fetuses / dead fetuses.
The mark [39] stands for this setting: group: offspring, systemic / hematology / leukocyte (wbc) count differential / leukocyte (wbc) + systemic / in life observation / body weight / offspring (pup….
Setting [40] is: group: parental, systemic / in life observation / body weight / body weight gain.
The mark [41] stands for this setting: systemic / pathology microscopic / liver / necrosis.
The mark [42] stands for this setting: systemic / pathology microscopic / liver / necrosis + systemic / pathology microscopic / thyroid gland / adenoma + systemic / in life ….

In the data set with mouse [1] (setting [20]), `Cc1cc(C)c(N)cc1C` [2,4,5-Trimethylaniline] yielded an LOAEL of 7.5 mg/kg/day and a no-observed-adverse-effect level (NOAEL) of less than 7.5 mg/kg/day. In the data set with mouse [1] (setting [21]), the LEL came out at 7.5 mg/kg/day and the NEL is less than 7.5 mg/kg/day. In the data set with rat [2] (setting [20]), this compound showed an LOAEL of 10 mg/kg/day and an NOAEL of less than 10 mg/kg/day. In addition, in the data set with rat [2] (setting [22]), the LEL stood at 10 mg/kg/day and the NEL was less than 10 mg/kg/day.
In the data set on rat [3] (setting [23]), `CCOP(=O)([O-])C(N)=O.[NH4+]` [Fosamine ammonium] displayed an LEL of 50 mg/kg/day and an LOAEL of 50 mg/kg/day. Further, in the data set on rat [3] (setting [24]), the NEL was found to be 10 mg/kg/day and the NOAEL turned out to be 10 mg/kg/day.
For the compound `S=C([S-])NCCNC(=S)[S-].S=C([S-])NCCNC(=S)[S-].[Mn+2].[Zn+2]` [Mancozeb], the LEL in the data set with dog [4] (setting [25]) came to 7.26 mg/kg/day; with dog [5] it was 28.6 mg/kg/day; in the data set on rat [6] (total), 17.8 mg/kg/day; in the data set on rat [7] (systemic / clinical chemistry / thyroid stimulating hormone (thyrotropin) (tsh) / thyroid stimulating hormone (=thyrotropin) (tsh)) it was 2.33 mg/kg/day; with rat [8] (setting [29]), 512 mg/kg/day; in the data set on rat [8] (setting [30]), 128 mg/kg/day. In addition, the LEL in the data set on rat [9] (setting [31]) stood at 2 mg/kg/day; in the data set with rat [9] (setting [32]) it was 128 mg/kg/day; with mouse [10] it was 167 mg/kg/day; with rat [11], 30 mg/kg/day; with rat [12] (setting [34]), 7.42 mg/kg/day. Moreover, the lowest observed adverse effect level (LOAEL) was 7.26 mg/kg/day in the data set with dog [4] (setting [25]); 28.6 mg/kg/day in the data set on dog [5]; 17.8 mg/kg/day in the data set on rat [6] (total); 30.9 mg/kg/day with rat [7] (setting [28]); 512 mg/kg/day in the data set on rat [8] (setting [29]); 128 mg/kg/day in the data set with rat [8] (setting [30]). For the same compound, the lowest-observed-adverse-effect level (LOAEL) turned out to be 8 mg/kg/day in the data set on rat [9] (group: developmental, developmental / developmental malformation / bone / incomplete ossification + developmental / developmental malformation / brain / [other]); 128 mg/kg/day with rat [9] (setting [32]); 167 mg/kg/day in the data set on mouse [10]; 30 mg/kg/day in the data set on rat [11]; 7.42 mg/kg/day with rat [12] (setting [34]). Moreover, the NEL with dog [4] (setting [26]) was found to be 1.75 mg/kg/day; in the data set on dog [5] it was 2.98 mg/kg/day; with rat [6] (setting [27]), 9.24 mg/kg/day; in the data set with rat [7] (setting [28]), 0.77 mg/kg/day; with rat [8] (setting [29]) it was 128 mg/kg/day; with rat [8] (setting [30]), 32 mg/kg/day. The NEL with rat [9] (setting [31]) was less than 2 mg/kg/day; in the data set with rat [9] (setting [33]) it was 32 mg/kg/day; with mouse [10] it was 18.1 mg/kg/day; in the data set with rat [11], 5 mg/kg/day; in the data set with rat [12] (setting [35]), 3.49 mg/kg/day. Besides, the NOAEL with dog [4] (setting [26]) is 1.75 mg/kg/day; in the data set with dog [5], 2.98 mg/kg/day; in the data set on rat [6] (setting [27]) it was 9.24 mg/kg/day; with rat [7] (setting [28]), 4.38 mg/kg/day; with rat [8] (setting [29]), 128 mg/kg/day; with rat [8] (setting [30]), 32 mg/kg/day. The NOAEL turned out to be 2 mg/kg/day with rat [9] (group: developmental, developmental / developmental malformation / bone / incomplete ossification + developmental / developmental malformation / brain / [other…); 32 mg/kg/day in the data set on rat [9] (setting [33]); 18.1 mg/kg/day in the data set on mouse [10]; 5 mg/kg/day in the data set with rat [11]; 3.49 mg/kg/day in the data set on rat [12] (setting [35]).
As to `CC(C)(C)C(O)(CCc1ccc(Cl)cc1)Cn1cncn1` (configuration not stated) [Tebuconazole], the LEL in the data set on dog [13] (setting [36]) amounted to 15.5 mg/kg/day; with rat [14] (setting [38]), 60 mg/kg/day; with rat [14] (setting [39]), 60 mg/kg/day; in the data set with rat [14] (setting [40]), 60 mg/kg/day; with dog [15], 4.39 mg/kg/day. Moreover, the NEL in the data set with dog [13] (setting [36]) was less than 15.5 mg/kg/day; in the data set on rat [14] (setting [38]) it was 20 mg/kg/day; in the data set on rat [14] (setting [39]) it was 20 mg/kg/day; with rat [14] (setting [40]), 20 mg/kg/day; with dog [15], 2.96 mg/kg/day. Further, the lowest observed adverse effect level (LOAEL) was 77.3 mg/kg/day with dog [13] (setting [37]); more than 60 mg/kg/day with rat [14] (setting [38]); more than 60 mg/kg/day in the data set with rat [14] (setting [39]); more than 60 mg/kg/day with rat [14] (setting [40]); 4.39 mg/kg/day in the data set on dog [15]. The NOAEL is 15.5 mg/kg/day in the data set on dog [13] (setting [37]); not below 60 mg/kg/day with rat [14] (setting [38]); not below 60 mg/kg/day in the data set on rat [14] (setting [39]); not below 60 mg/kg/day in the data set with rat [14] (setting [40]); 2.96 mg/kg/day in the data set on dog [15].
As to `O=C(NC(=O)c1c(F)cccc1F)Nc1cc(Cl)c(OC(F)(F)C(F)C(F)(F)F)c(Cl)c1F` (configuration not stated) [Noviflumuron], in the data set on dog [16], the LEL was 113 mg/kg/day, the lowest observed adverse effect level (LOAEL) stood at 113 mg/kg/day, the NEL was 1.06 mg/kg/day and the NOAEL was found to be 1.06 mg/kg/day.
With `O=C1CCC(N2C(=O)c3ccccc3C2=O)C(=O)N1` (configuration not stated) [Thalidomide], in the data set on rat [17], the LEL amounted to 100 mg/kg/day, the lowest observed adverse effect level (LOAEL) was more than 100 mg/kg/day, the NEL was less than 100 mg/kg/day and the NOAEL is not below 100 mg/kg/day.
Take `ClC(Cl)=C(c1ccc(Cl)cc1)c1ccc(Cl)cc1` [p,p'-DDE]: in the data set on mouse [18], the LEL was 22.2 mg/kg/day, the LOAEL was more than 39.1 mg/kg/day, the NEL is less than 22.2 mg/kg/day and the no observed adverse effect level (NOAEL) is not below 39.1 mg/kg/day. Besides, in the data set on rat [19] (setting [41]), the LOAEL was 12.1 mg/kg/day and the no-observed-adverse-effect level (NOAEL) is less than 12.1 mg/kg/day. Also, in the data set with rat [19] (setting [42]), the LEL stood at 12.1 mg/kg/day and the NEL is less than 12.1 mg/kg/day.
